What was measured:
Type in all cases: cell-based
[1] = tested on: fetal hemoglobin (HbF) in GCSF-mobilized human CD34+ cells; test: HbF Induction Assay; conditions: 168 h; compound 1 μM, 7 days, erythroid-differentiated human CD34+ cells, flow cytometry; DMSO baseline 15% HbF positive cells
Experimental: The expansion, differentiation, and maturation of GCSF-mobilized human CD34^+ (STEMCELL Technologies Inc.) cells towards erythroid lineage cells were performed using a two-phase liquid culture model (Moutouh-de Parseval L A, el al. Pomalidomide and lenalidomide regulate erythropoiesis and fetal hemoglobin production in human CD34+ cells. J Clin Invest. 2008 January; 118(1):248-58). In the first phase, GCSF-mobilized human CD34^+ cells were cultured using StemSpan™-XF (STEMCELL Technologies Inc.) media supplemented with 1×BIT 9500, Penicillin-Streptomycin (50 U/mL), 100 ng/mL recombinant human (rh) SCF, 100 ng/mL rh Flt3-L, 20 ng/mL rh IL-3 and 10 ng/mL rh EPO and the growth of cells maintained in exponential phase for 7 days at 37° C. with 5% CO2 to support expansion and progenitor differentiation prior the second phase and treatment with compounds. In the second phase, culture media was changed to StemSpan™-XF media supplemented with 1×BIT 9500, Penicillin-Streptomycin (50 U/mL), 50 ng/mL rh SCF and 40 ng/mL rh EPO to promote further differentiation and maturation of the erythrocytes and to initiate treatment with compounds. Compounds were dispensed in duplicate at a final concentration of 1 μM in a final DMSO amount of 0.1%. Fresh compound was reapplied, and cell density was kept constant every 2 days. After 7 days, the cells were assessed for viability and fetal hemoglobin expression using flow cytometry. For viability analysis, eBioscience™ Fixable Viability Dye eFluor™ 780 (1:1000, eBioscience; Cat #65-0865-14) was added to the cells and kept in the dark for 10 minutes. For analysis of fetal hemoglobin (HbF), cells were fixed and permeabilized using Fixation Buffer (BioLegend; Cat #420801 and Intracellular staining permeabilization buffer (BioLegend, Cat #420201) following manufacturer's instructions. During permeabilization step, cells were stained with PE-labelled Mouse Anti-Human Fetal Hemoglobin (1:10, clone 2D12; BD Biosciences, Cat #BDB560041) incubated at room temperature for 20 minutes and protected from light. PE-labelled Mouse anti-IgG k, (1:10 clone MOPC-21; BD Biosciences, Cat# BDB551436) was used as an isotype control.
Viability, cell count, and fetal hemoglobin (HbF) levels were measured using an Attune NXT flow cytometer (Thermofisher) and the data analyzed using the FCS express software (De Novo Software). In Table 1 below, the effects of compounds of formula (I), formula (I′), formula (II), formula (II′), and formula (III) on % viable cells, viable cell count, on the % HbF positive cells and the median fluorescent intensity (MFI) of the HbF positive cell population compared to the DMSO controls can be viewed. All gates were set using the isotype negative control. The baseline % HbF positive cells for DMSO-treated control cells was 15%. Compounds of formula (I), formula (I′), formula (II), formula (II′), and formula (III) having HbF induction between 66% and 100% are level A. Compounds of formula (I), formula (I′), formula (II), formula (II′), and formula (III) having HbF induction between 33% and 66% are level B. Compounds of formula (I), formula (I′), formula (II), formula (II′), and formula (III) having HbF induction % less than 33% are level C. For certain compounds of formula (I), formula (I′), formula (II), formula (II′), and formula (III) % HbF induction values 0-33% (activity level C), between 33% and 66% (activity level B), and between 67% and 100% (activity level A) are shown in Table 2 below.

[2] = target: WIZ (Widely interspaced zinc finger) (Homo sapiens (Human), UniProt O95785+Q96SW2); test: HUDEP-2 WIZ HiBiT degradation assay; conditions: HUDEP-2 WIZ HiBiT cells, 24 hours treatment, luminescence; for DC50: read-out: WIZ EC50
WIZ (Widely interspaced zinc finger), sequence (O95785 whole entry, the tested form may be a part): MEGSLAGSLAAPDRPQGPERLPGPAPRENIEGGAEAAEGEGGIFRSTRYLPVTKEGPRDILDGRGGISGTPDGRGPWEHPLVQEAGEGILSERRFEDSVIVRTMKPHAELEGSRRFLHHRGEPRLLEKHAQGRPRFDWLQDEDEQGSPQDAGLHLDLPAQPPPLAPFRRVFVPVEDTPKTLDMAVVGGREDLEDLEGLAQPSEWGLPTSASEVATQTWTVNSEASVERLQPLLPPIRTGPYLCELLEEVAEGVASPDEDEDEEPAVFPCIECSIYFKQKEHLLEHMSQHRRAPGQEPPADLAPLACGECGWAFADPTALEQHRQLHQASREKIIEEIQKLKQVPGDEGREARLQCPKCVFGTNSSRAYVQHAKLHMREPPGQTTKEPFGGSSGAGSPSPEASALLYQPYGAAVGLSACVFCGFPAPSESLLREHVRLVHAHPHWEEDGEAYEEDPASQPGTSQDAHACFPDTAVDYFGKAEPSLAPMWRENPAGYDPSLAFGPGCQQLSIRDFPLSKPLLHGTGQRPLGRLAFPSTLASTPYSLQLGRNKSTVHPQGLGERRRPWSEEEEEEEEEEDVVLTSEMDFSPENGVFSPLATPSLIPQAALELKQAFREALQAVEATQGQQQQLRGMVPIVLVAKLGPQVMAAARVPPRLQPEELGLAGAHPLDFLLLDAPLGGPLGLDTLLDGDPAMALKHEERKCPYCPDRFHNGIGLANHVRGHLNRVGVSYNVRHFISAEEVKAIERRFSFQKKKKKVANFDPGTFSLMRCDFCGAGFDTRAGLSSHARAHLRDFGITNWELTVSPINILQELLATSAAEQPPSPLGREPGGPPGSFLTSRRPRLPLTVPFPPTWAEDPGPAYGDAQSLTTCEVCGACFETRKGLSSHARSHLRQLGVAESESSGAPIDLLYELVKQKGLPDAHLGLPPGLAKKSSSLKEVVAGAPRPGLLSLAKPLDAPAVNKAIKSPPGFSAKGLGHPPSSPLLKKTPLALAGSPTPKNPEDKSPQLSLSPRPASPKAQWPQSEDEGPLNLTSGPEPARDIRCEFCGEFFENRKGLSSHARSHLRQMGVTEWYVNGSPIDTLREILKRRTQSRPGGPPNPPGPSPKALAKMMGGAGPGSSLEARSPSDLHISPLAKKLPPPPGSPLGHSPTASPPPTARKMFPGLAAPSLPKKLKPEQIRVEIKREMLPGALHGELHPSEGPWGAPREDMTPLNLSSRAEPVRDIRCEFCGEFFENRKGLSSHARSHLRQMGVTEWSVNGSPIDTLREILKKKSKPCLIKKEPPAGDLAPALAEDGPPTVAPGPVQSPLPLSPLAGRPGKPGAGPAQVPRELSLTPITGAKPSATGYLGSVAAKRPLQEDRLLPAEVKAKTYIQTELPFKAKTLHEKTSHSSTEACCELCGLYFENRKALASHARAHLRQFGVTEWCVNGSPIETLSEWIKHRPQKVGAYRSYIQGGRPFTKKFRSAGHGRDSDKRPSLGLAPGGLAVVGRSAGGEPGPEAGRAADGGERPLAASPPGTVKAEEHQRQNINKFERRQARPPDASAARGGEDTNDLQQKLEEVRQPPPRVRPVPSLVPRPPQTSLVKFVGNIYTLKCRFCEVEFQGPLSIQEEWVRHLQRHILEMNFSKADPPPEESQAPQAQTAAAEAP
WIZ (Widely interspaced zinc finger), sequence (Q96SW2 whole entry, the tested form may be a part): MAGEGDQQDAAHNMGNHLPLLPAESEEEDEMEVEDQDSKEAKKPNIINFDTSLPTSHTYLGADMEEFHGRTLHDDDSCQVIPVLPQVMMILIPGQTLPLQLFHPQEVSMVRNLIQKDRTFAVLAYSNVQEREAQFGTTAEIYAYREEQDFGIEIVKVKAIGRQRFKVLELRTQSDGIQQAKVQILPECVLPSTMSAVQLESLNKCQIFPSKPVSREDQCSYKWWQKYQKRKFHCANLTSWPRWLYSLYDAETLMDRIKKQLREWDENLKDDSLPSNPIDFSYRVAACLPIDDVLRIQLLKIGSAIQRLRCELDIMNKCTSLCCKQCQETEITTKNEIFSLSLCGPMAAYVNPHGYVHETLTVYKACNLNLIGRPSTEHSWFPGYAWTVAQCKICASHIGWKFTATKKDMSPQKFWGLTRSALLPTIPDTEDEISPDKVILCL
WIZ (Widely interspaced zinc finger), sequence (Q16531 whole entry partner, the tested form may be a part): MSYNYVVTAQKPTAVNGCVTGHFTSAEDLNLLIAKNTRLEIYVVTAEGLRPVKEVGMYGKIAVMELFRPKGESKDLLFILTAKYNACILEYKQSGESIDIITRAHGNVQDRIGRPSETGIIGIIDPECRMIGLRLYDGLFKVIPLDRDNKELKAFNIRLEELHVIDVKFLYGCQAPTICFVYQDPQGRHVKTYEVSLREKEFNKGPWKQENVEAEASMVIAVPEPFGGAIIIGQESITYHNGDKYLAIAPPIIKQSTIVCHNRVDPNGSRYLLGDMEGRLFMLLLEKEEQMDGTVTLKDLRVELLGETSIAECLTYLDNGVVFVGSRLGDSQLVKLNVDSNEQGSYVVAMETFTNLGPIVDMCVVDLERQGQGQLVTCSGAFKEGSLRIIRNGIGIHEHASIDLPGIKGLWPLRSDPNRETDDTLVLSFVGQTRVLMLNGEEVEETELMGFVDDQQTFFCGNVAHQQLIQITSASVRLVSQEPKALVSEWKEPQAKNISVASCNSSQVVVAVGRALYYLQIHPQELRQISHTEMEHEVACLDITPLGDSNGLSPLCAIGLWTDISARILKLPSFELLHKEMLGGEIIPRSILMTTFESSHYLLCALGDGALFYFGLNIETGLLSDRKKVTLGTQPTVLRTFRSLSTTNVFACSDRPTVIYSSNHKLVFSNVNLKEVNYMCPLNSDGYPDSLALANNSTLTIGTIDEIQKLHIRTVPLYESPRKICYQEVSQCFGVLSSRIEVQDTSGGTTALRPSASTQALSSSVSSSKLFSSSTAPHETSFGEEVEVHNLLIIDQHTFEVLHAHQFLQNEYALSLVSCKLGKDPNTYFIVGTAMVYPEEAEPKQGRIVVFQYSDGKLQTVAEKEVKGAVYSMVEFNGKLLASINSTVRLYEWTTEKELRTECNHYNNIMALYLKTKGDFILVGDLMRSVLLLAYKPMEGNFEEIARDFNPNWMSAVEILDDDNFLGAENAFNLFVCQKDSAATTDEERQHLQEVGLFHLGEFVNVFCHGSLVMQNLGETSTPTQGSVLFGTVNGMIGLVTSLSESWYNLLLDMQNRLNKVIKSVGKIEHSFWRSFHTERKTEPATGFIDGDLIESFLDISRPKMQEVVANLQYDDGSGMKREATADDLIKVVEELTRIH
Experimental: (§1) The HiBiT degradation assay for WIZ and ZBTB7A in HUDEP-2 cells was performed as described below. HUDEP-2 cells engineered to express a HiBiT tag in either the WIZ (Widely interspaced zinc finger) or ZBTB7A (Zinc Finger And BTB Domain Containing 7A) proteins were maintained in low attachment flasks in StemSpan SFEM II media supplemented with Penicillin-Streptomycin (50 U/mL), rhSCF (50 ng/mL), rhEPO (3 IU/mL), dexamethasone (0.4 μg/mL) and doxycycline (1 μg/mL). Prior to start of the assay, cell count and viability were measured by trypan blue exclusion using the Vi-cell XR cell viability analyzer. For the HUDEP-2 WIZ HiBiT assay, cells were transferred to a 50 mL conical and centrifuged at 500 g for five minutes. Cells were resuspended in fresh StemSpan SFEM II media supplemented with Penicillin-Streptomycin (50 U/mL), rhSCF (50 ng/mL), rhEPO (3 IU/mL), dexamethasone (0.4 μg/mL) and doxycycline (1 μg/mL) at a density of 1.0×10^6 cells/ml. Forty microliters of cell suspension was dispensed into 384-well Low Flange White Flat Bottom Polystyrene TC-treated Microplates containing pre-dispensed compounds, using a VIAFLO 384 liquid hander, and placed in a 37° C. incubator with 5% CO2. […] After 24 hours of treatment, 40 μL Nano-Glo HiBiT Lytic Detection System reagent was dispensed into each well using a VIAFLO 384 liquid hander. Plates were incubated for 25 minutes at room temperature and the luminescence was read as relative luminescent units using the EnVision plate reader. EC50 and Y-min values were calculated using curves calculated from dotmatics software after the normalization to the DMSO control of 10 different concentrations: 10, 3.33, 1.11, 0.37, 0.12, 0.04 0.0137, 0.0046, 0.0015 and 0.0005 μM respectively.

[3] = target: ZBTB7A (Zinc Finger And BTB Domain Containing 7A) (Homo sapiens (Human), UniProt O95365+Q96SW2); test: HUDEP-2 ZBTB7A HiBiT degradation assay; conditions: HUDEP-2 ZBTB7A HiBiT cells, 24 hours treatment, luminescence; for DC50: read-out: ZBTB7A EC50
ZBTB7A (Zinc Finger And BTB Domain Containing 7A), sequence (O95365 whole entry, the tested form may be a part): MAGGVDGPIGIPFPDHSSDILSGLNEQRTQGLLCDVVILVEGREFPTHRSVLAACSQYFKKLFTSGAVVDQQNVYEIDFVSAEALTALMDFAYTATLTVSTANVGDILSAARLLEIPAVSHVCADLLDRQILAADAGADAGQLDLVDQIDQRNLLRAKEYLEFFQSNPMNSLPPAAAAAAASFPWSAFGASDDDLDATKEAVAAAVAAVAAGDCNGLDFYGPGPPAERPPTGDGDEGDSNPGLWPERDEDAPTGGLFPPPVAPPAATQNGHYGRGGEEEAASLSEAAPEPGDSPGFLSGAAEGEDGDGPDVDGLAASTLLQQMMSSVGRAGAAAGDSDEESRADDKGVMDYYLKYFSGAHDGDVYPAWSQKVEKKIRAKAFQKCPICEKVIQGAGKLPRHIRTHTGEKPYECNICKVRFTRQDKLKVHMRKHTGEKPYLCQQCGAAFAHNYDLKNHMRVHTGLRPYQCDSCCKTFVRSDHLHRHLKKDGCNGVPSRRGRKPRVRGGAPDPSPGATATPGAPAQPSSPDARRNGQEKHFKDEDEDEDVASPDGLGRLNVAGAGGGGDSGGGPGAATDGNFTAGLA
ZBTB7A (Zinc Finger And BTB Domain Containing 7A), sequence (Q96SW2 whole entry, the tested form may be a part): as the sequence (Q96SW2 whole entry, the tested form may be a part) above
ZBTB7A (Zinc Finger And BTB Domain Containing 7A), sequence (Q16531 whole entry partner, the tested form may be a part): as the sequence (Q16531 whole entry partner, the tested form may be a part) above
Experimental: as §1
For the HUDEP-2 ZBTB7A HiBiT assay, cell count and viability were measured by trypan blue exclusion using the Vi-cell XR cell viability analyzer and the cells were transferred to a 50 mL conical and centrifuged at 500 g for five minutes. Cells were resuspended in fresh IMDM media supplemented with L-Glutamine (1×), Penicillin-Streptomycin (50 U/mL), holo-transferrin (330 μg/mL), heparin (2 IU/mL), r-human Insulin (10 μg/mL), rhEPO (3 IU/mL), rhSCF (100 ng/mL)+Dox (1 μg/mL) and 5% human plasma in low attachment flasks, which were placed in a 37° C. incubator with 5% CO2. After 48 hours, cell count and viability were measured by trypan blue exclusion using the Vi-cell XR cell viability analyzer. The HUDEP-2 ZBTB7A cells were transferred to a 50 mL conical, centrifuged at 500 g for five minutes and resuspended at a density of 1.0×10^6 cells/ml in IMDM media supplemented with L-Glutamine (1×), Penicillin-Streptomycin (50 U/mL), holo-transferrin (330 μg/mL), heparin (2 IU/mL), r-human Insulin (10 μg/mL), rhEPO (3 IU/mL), rhSCF (100 ng/mL)+Dox (1 μg/mL) and 5% human plasma. Forty microliters of cell suspension was dispensed into 384-well Low Flange White Flat Bottom Polystyrene TC-treated Microplates containing pre-dispensed compounds, using a VIAFLO 384 liquid hander, and placed in a 37° C. incubator with 5% CO2. […] After 24 hours of treatment, 40 μL Nano-Glo HiBiT Lytic Detection System reagent was dispensed into each well using a VIAFLO 384 liquid hander. Plates were incubated for 25 minutes at room temperature and the luminescence was read as relative luminescent units using the EnVision plate reader. EC50 and Y-min values were calculated using curves calculated from dotmatics software after the normalization to the DMSO control of 10 different concentrations: 10, 3.33, 1.11, 0.37, 0.12, 0.04 0.0137, 0.0046, 0.0015 and 0.0005 μM respectively.

Row | Compound | activation at 1 µM [1] | DC50 [2] | DC50 [3] | EC50 [3] | EC50 [2]
1 | Cn1ncc2cc(Nc3cccc4c3C(=O)N(C3CCC(=O)NC3=O)C4=O)c(Oc3ccc(F)cc3)cc21 (stereo not shown) [Compound 17, 2-(2,6-dioxopiperidin-3-yl)-4-((6-(4-fluorophenoxy)-1-methyl-1H-indazol-5-yl)amino)isoindoline-1,3-dione] | 66 to 100% | 10 to 100 nM | 30 to 100 nM |  | 
2 | Cc1cc(-c2cc3c(cc2Nc2cccc4c2C(=O)N([C@H]2CCC(=O)NC2=O)C4=O)N(C)C(=O)CC3)cn(C)c1=O [Compound 35, (S)-4-((6-(1,5-dimethyl-6-oxo-1,6-dihydropyridin-3-yl)-1-methyl-2-oxo-1,2,3,4-tetrahydroquinolin-7-yl)amino)-2-(2,6-dioxopiperidin-3-yl)isoindoline-1,3-dione] |  | 10 to 100 nM | 30 to 100 nM |  | 
3 | Cc1nn(C)cc1-c1cc2c(cc1Nc1cccc3c1C(=O)N([C@H]1CCC(=O)NC1=O)C3=O)N(C)C(=O)CC2 [Compound 38, (S)-4-((6-(1,3-dimethyl-1H-pyrazol-4-yl)-1-methyl-2-oxo-1,2,3,4-tetrahydroquinolin-7-yl)amino)-2-(2,6-dioxopiperidin-3-yl)isoindoline-1,3-dione] |  | 10 to 100 nM |  | < 30 nM | 
4 | CC1(N2C(=O)c3cccc(Nc4cccc(COc5ccccc5)c4)c3C2=O)CCC(=O)NC1=O (stereo not shown) [Compound 54, 2-(3-methyl-2,6-dioxopiperidin-3-yl)-4-((3-(phenoxymethyl)phenyl)amino)isoindoline-1,3-dione] |  | > 100 nM |  | > 100 nM | 
5 | Cc1cc2c(cc1Nc1cccc3c1C(=O)N(C1CCC(=O)NC1=O)C3=O)N(C)C(=O)CC2 (stereo not shown) [Compound 33, 4-((1,6-dimethyl-2-oxo-1,2,3,4-tetrahydroquinolin-7-yl)amino)-2-(2,6-dioxopiperidin-3-yl)isoindoline-1,3-dione] |  | 10 to 100 nM | 30 to 100 nM |  | 
6 | CN1C(=O)CCc2cc(-c3cnn(C)c3)c(Nc3cccc4c3C(=O)N(C3CCC(=O)NC3=O)C4=O)cc21 (stereo not shown) [Compound 36, 2-(2,6-dioxopiperidin-3-yl)-4-((1-methyl-6-(1-methyl-1H-pyrazol-4-yl)-2-oxo-1,2,3,4-tetrahydroquinolin-7-yl)amino)isoindoline-1,3-dione] |  | 10 to 100 nM |  | < 30 nM | 
7 | CN1C(=O)CCc2cc(C3CC3)c(Nc3cccc4c3C(=O)N(C3CCC(=O)NC3=O)C4=O)cc21 (stereo not shown) [Compound 34, 4-((6-cyclopropyl-1-methyl-2-oxo-1,2,3,4-tetrahydroquinolin-7-yl)amino)-2-(2,6-dioxopiperidin-3-yl)isoindoline-1,3-dione] |  | 10 to 100 nM |  | < 30 nM | 
8 | Cc1cc(-c2cc3c(cc2Nc2cccc4c2C(=O)N([C@]2(C)CCC(=O)NC2=O)C4=O)N(C)C(=O)CC3)ccn1 [Compound 53, (R)-2-(3-methyl-2,6-dioxopiperidin-3-yl)-4-((1-methyl-6-(2-methylpyridin-4-yl)-2-oxo-1,2,3,4-tetrahydroquinolin-7-yl)amino)isoindoline-1,3-dione] |  | > 100 nM |  | > 100 nM | 
9 | COc1nccc(-c2cc3c(cc2Nc2cccc4c2C(=O)N(C2CCC(=O)NC2=O)C4=O)N(C)C(=O)CC3)c1F (stereo not shown) [Compound 50, 2-(2,6-dioxopiperidin-3-yl)-4-((6-(3-fluoro-2-methoxypyridin-4-yl)-1-methyl-2-oxo-1,2,3,4-tetrahydroquinolin-7-yl)amino)isoindoline-1,3-dione] |  | 10 to 100 nM |  | < 30 nM | 
10 | COc1cc(-c2cc3c(cc2Nc2cccc4c2C(=O)N(C2CCC(=O)NC2=O)C4=O)N(C)C(=O)CC3)c(F)cn1 (stereo not shown) [Compound 51, 2-(2,6-dioxopiperidin-3-yl)-4-((6-(5-fluoro-2-methoxypyridin-4-yl)-1-methyl-2-oxo-1,2,3,4-tetrahydroquinolin-7-yl)amino)isoindoline-1,3-dione] |  | 10 to 100 nM | 30 to 100 nM |  | 
11 | CN1C(=O)CCc2cc(-c3cnn(C4CC4)c3)c(Nc3cccc4c3C(=O)N([C@H]3CCC(=O)NC3=O)C4=O)cc21 [Compound 37, (S)-4-((6-(1-cyclopropyl-1H-pyrazol-4-yl)-1-methyl-2-oxo-1,2,3,4-tetrahydroquinolin-7-yl)amino)-2-(2,6-dioxopiperidin-3-yl)isoindoline-1,3-dione] |  |  |  | < 30 nM | < 10 nM
12 | COc1cc(-c2cc3c(cc2Nc2cccc4c2C(=O)N([C@H]2CCC(=O)NC2=O)C4=O)N(C)C(=O)CC3)cc(C)n1 [Compound 49, (S)-2-(2,6-dioxopiperidin-3-yl)-4-((6-(2-methoxy-6-methylpyridin-4-yl)-1-methyl-2-oxo-1,2,3,4-tetrahydroquinolin-7-yl)amino)isoindoline-1,3-dione] |  |  |  | < 30 nM | < 10 nM

— patent US20240208937A1, “Compounds and Their Use for Treatment of Hemoglobinopathies” (Bristol-Myers Squibb Company, priority 2022, published 2024)
